Measurements from paper PMC11101637, “Bioinformatics leading to conveniently accessible, helix enforcing, bicyclic ASX motif mimics (BAMMs)” (Nature Communications, 2024).
Peptide text beside a SMILES is read from it. * marks the point of attachment. X3 = C[C@@H]1NC(=O)[C@H](CCC(N)=O)NC(=O)[C@H](CC(=O)O)NC(=O)[C@@H](N)CSCc2cc3cc(c2)CSC[C@@H](C(=O)*)NC(=O)[C@H](CSC3)NC1=O; X1 = C[C@@H]1NC(=O)[C@H](CC(=O)O)NC(=O)[C@@H](N)CSCc2cc3cc(c2)CSC[C@@H](C(=O)*)NC(=O)[C@H](CSC3)NC(=O)[C@H](CO)NC1=O; X2 = C[C@@H]1NC(=O)[C@H](C)NC(=O)[C@H](CC(=O)O)NC(=O)[C@@H](N)CSCc2cc3cc(c2)CSC[C@@H](C(=O)*)NC(=O)[C@H](CSC3)NC1=O

What was measured:
circular dichroism = details: PBS; pH 7.4; 25 °C; 5-30 uM
[1] = CD spectroscopy: percent helicity and ellipticity ratio 222/208 nm; format: physicochemical; details: for % helicity: 5-30 μM peptide, three scans averaged, [θ]222/[θ]max
Protocol: Circular dichroism (CD) experiments
Concentrations of the stock solution were determined by […] absorption of Trp or 275 nm absorption of Tyr (and TMB, if present in peptides). Each sample was dissolved in 1x PBS (pH 7.4), 10% TFE/PBS or 20% TFE/PBS with the final concentration between 5 to 30 μM. CD spectra were acquired using circular dichroism spectrometer (Chirascan) equipped with a temperature controller using 1 mm cell at a scan speed of 0.5 nm/sec at indicated temperature. Each sample was scanned three times and the averaged spectrum was smoothed.
Calculation of percent helicity
For simplicity, ‘helicity’ or ‘helical’ in the following text all refers to α-type. For each peptide, mean residue ellipticities ([θ]/(c*n), c = concentration of the peptide, n = number of amino acids in the peptide) were used to calculate % helicity, which is an empirical indicator of peptide helicity. […] (n = number of amino acids in the peptide, T = 25.0 °C).

[2] = In vitro peptide stability in human serum; format: in vitro ADME; details: 25% male human serum diluted in RPMI medium, 150 μM peptide, 37 °C, serum pre-equilibrated 15 min, methanol precipitation, RP-HPLC 210 nm peak area relative to 0 h, LC-MS for products
Protocol: In vitro peptide stability in human serum[50]
Male human serum (H-4522) was obtained from Sigma Aldrich (Missouri, USA). […] The initial time is recorded as peptides were added. The mixture was incubated at 37 °C and an aliquot of 40 μL was removed at different time intervals. […] The supernatant was analyzed in analytical RP-HPLC to calculate the amount of tested peptides, and in LCMS to analyze degradation products. The eluted peptides were detected by absorbance at 210 nm and quantified by their peak areas relative to the initial peak areas (0 h).

cyclin E [3] = target: T1, cyclin E (Homo sapiens, UniProt P24864); assay: Direct FP assay to measure Kd of fluorescent peptides; format: binding; details: FITC-labelled peptide 20 nM final, cyclin E up to 2.4 μM final, PBS, 3 h, n=1 independent experiment in duplicate wells; not saturated, estimate value; read-out: Kd, fluorescence polarization
T1 construct: purchased Sino Biological
T1 sequence (P24864 whole entry): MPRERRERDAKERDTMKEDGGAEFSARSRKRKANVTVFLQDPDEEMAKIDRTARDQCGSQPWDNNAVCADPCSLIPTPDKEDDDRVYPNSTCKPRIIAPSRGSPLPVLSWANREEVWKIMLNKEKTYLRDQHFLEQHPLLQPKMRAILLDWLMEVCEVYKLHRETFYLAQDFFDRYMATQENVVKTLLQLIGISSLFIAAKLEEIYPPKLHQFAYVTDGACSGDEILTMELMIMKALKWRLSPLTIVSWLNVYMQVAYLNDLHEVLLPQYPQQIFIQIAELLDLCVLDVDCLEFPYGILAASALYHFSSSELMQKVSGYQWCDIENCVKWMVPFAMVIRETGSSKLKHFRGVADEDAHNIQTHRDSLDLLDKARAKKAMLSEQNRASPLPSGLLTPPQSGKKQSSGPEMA
Protocol: Direct FP assay to measure Kd of fluorescent peptides
Polarized fluorescence intensities were measured on Synergy H4 plate reader with excitation and emission wavelengths of 485 and 535 nm with 20 nm band widths, respectively. The optics position is Top 510 nm with Gain set as 100. Read Speed is normal and read height is 7 mm. Cyclin proteins were bought from Sino Biological and after reconstitution it should be used immediately. […] To each well, 10 μL 40 nM of fluorescent peptides in PBS was added. Various concentrations of cyclin E (from Sino Biological, Inc.) were prepared (0.16–4.8 μM) and 10 μL were added to each well. The plate was shaken in the dark for 3 h. Wells containing only the peptide and PBS buffer were used as a control. Each mixture was prepared in duplicates.

cyclin E [4] = target: T1, cyclin E; assay: Trp fluorescence quenching assay; format: binding; details: 0.8 μM cyclin E in PBS pH 7.4, 25 °C, ex 295 nm, em 338 nm; n = 2 independent experiments, ± S.D.
Protocol: Trp fluorescence quenching assay
Fluorescence quenching of the single tryptophan in cyclin E was measured by using a Cary Eclipse (Varian) equipped with a front-face fluorescence accessory at 25 °C, by using 10-nm excitation and 10 nm emission bandwidths. The excitation wavelength was 295 nm and the emission spectra were measured between 315 and 395 nm. Titrations were performed in a 0.7-ml quartz fluorescence cuvette containing 0.5 mL 0.8 μM protein in PBS buffer, pH 7.4, and by the successive addition of 0.5–1 μL of compound stock solutions. After each addition, the cuvette was shaken to enable fast mixture, and there were 10 mins interval between two additions to ensure equilibrium of the mixture. The measurements were repeated at least three times at each concentration. Fluorescence intensities at 338 nm at increasing concentrations of the quencher were collected. Dissociation equilibrium constant (Kd) values were determined by fitting data to the equation below[42],[43].

[5] = CD in PBS buffer (pH 7.4, 10 mM), 25.0 °C, 1 mm cell

Compound	helicity (circular dichroism) [%]	ellipticity ratio 222/208 nm ([1]; CD in 10% TFE/PBS, 25 °C)	% helicity ([1]; CD in 10% TFE/PBS, 25 °C) [%]	% helicity [1, 5] [%]	ellipticity ratio 222/208 nm ([1]; CD in PBS, 25 °C)	half-life [2] [h]	half-life at 150 μM [2] [h]	Kd (cyclin E [3]) [µM]	Kd (cyclin E [4]) [µM]
Ac-KNIASLLRVQAHIRKKMVY-NH2 [4l]	14	0.69	35	14	0.27	< 1			
CC[C@H](C)[C@H](NC(=O)[C@H](CCC(=O)O)NC(=O)[C@H](C)NC(=O)[C@H](CC(C)C)NC(=O)[C@H](CCC(N)=O)NC(=O)[C@@H]1CSCc2cc3cc(c2)CSC[C@H](N)C(=O)N[C@@H](CC(=O)O)C(=O)N[C@@H](CCC(N)=O)C(=O)N[C@@H](C(C)C)C(=O)N[C@@H](CSC3)C(=O)N1)C(=O)N[C@@H](Cc1ccc(O)cc1)C(N)=O [1B]	17	0.86	43	17	0.48		5.1		
CC[C@H](C)[C@H](NC(=O)[C@H](CC(N)=O)NC(=O)[C@H](CCCCN)NC(=O)[C@@H]1CSCc2cc3cc(c2)CSC[C@H](N)C(=O)N[C@@H](CC(=O)O)C(=O)N[C@@H](C)C(=O)N[C@@H](C)C(=O)N[C@@H](CSC3)C(=O)N1)C(=O)N[C@@H](C)C(=O)N[C@@H](CO)C(=O)N[C@@H](CC(C)C)C(=O)N[C@@H](CC(C)C)C(=O)N[C@@H](CCCNC(=N)N)C(=O)N[C@H](C(=O)N[C@@H](CCC(N)=O)C(=O)N[C@@H](C)C(=O)N[C@@H](Cc1c[nH]cn1)C(=O)N[C@H](C(=O)N[C@@H](CCCNC(=N)N)C(=O)N[C@@H](CCCCN)C(=O)N[C@@H](CCCCN)C(=O)N[C@@H](CCSC)C(=O)N[C@H](C(=O)N[C@@H](Cc1ccc(O)cc1)C(N)=O)C(C)C)[C@@H](C)CC)C(C)C [4B] (X2-KNIASLLRVQAHIRKKMVY-NH2; N-terminus and C-terminus assumed)		1	45	22	0.64	1.1			
CC[C@H](C)[C@H](NC(=O)[C@H](CC(N)=O)NC(=O)[C@H](CCCCN)NC(=O)[C@H](CSC)NC(=O)[C@H](CSC)NC(=O)[C@H](C)NC(=O)[C@H](C)NC(=O)[C@H](CC(=O)O)NC(=O)[C@@H](N)CSC)C(=O)N[C@@H](C)C(=O)N[C@@H](CO)C(=O)N[C@@H](CC(C)C)C(=O)N[C@@H](CC(C)C)C(=O)N[C@@H](CCCNC(=N)N)C(=O)N[C@H](C(=O)N[C@@H](CCC(N)=O)C(=O)N[C@@H](C)C(=O)N[C@@H](Cc1c[nH]cn1)C(=O)N[C@H](C(=O)N[C@@H](CCCNC(=N)N)C(=O)N[C@@H](CCCCN)C(=O)N[C@@H](CCCCN)C(=O)N[C@@H](CCSC)C(=O)N[C@H](C(=O)N[C@@H](Cc1ccc(O)cc1)C(N)=O)C(C)C)[C@@H](C)CC)C(C)C [4m] (H-C(Me)DAAC(Me)C(Me)KNIASLLRVQAHIRKKMVY-NH2; N-terminus and C-terminus assumed)		0.73	35	11	0.29	< 1			
CC[C@H](C)[C@H](NC(=O)[C@@H]1CSCc2cc3cc(c2)CSC[C@H](NC(=O)[C@H](CO)NC(=O)[C@H](C)NC(=O)[C@H](CC(=O)O)NC(=O)[C@@H](NC(=O)CCNC(=O)CCNC(=O)CCNC(=S)Nc2ccc4c(c2)C(=O)OC42c4ccc(O)cc4Oc4cc(O)ccc42)CSC3)C(=O)N1)C(=O)N[C@@H](CCCNC(=N)N)C(=O)N[C@@H](CCC(=O)O)C(=O)N[C@H](C(=O)N[C@@H](CO)C(=O)N[C@@H](CC(C)C)C(=O)N[C@@H](CC(C)C)C(=O)N[C@@H](CCCCN)C(=O)N[C@@H](CCC(=O)O)C(=O)N[C@@H](Cc1ccc(O)cc1)C(N)=O)[C@@H](C)CC [3Bf]								4.6 ± 2.4	
CC[C@H](C)[C@H](NC(=O)[C@@H]1CSCc2cc3cc(c2)CSC[C@H](N)C(=O)N[C@@H](CC(=O)O)C(=O)N[C@@H](C)C(=O)N[C@@H](CO)C(=O)N[C@@H](CSC3)C(=O)N1)C(=O)N[C@@H](CCCNC(=N)N)C(=O)N[C@@H](CCC(=O)O)C(=O)N[C@H](C(=O)N[C@@H](CO)C(=O)N[C@@H](CC(C)C)C(=O)N[C@@H](CC(C)C)C(=O)N[C@@H](CCCCN)C(=O)N[C@@H](CCC(=O)O)C(=O)N[C@@H](Cc1ccc(O)cc1)C(N)=O)[C@@H](C)CC [3B] (X1-IREISLLKEY-NH2; N-terminus and C-terminus assumed)	17	0.84	34	17	0.5		3.5		
CC(C)C[C@H](NC(=O)[C@H](C)NC(=O)[C@H](CCCNC(=N)N)NC(=O)[C@H](CC(C)C)NC(=O)[C@H](CC(C)C)NC(=O)[C@@H]1CSCc2cc3cc(c2)CSC[C@H](N)C(=O)N[C@@H](CC(=O)O)C(=O)N[C@@H](CCC(N)=O)C(=O)N[C@@H](C)C(=O)N[C@@H](CSC3)C(=O)N1)C(=O)N[C@@H](CC(=O)O)C(=O)N[C@@H](CCC(N)=O)C(=O)N[C@@H](Cc1ccc(O)cc1)C(N)=O [2B] (X3-LLRALDQY-NH2; N-terminus and C-terminus assumed)	25	1	42	25	0.91		2.9		
Ac-ASTAIREISLLKEY-NH2 [3l]	11	0.34	20	11	0.18				8.6 ± 2.8
